Source: patent publication US20250066356A1, “LRRK2 INHIBITORS” (INTERLINE THERAPEUTICS, INC., priority 2022, published 2025)

Legend:
LRRK2 wild type enzyme = LRRK2 wild type enzyme (Homo sapiens, UniProt Q5S007); assay: LRRK2 biochemical assay (LanthaScreen TR-FRET, LRRKtide substrate); conditions: LRRK2 inhibition; 3 nM LRRK2, 400 nM LRRKtide, 25 μM ATP, 120 min, 23° C.
Method: 10 mM compound solution was prepared in DMSO. An 11-point, 3-fold dilution was performed, with highest concentration at 10 μM. A 10 mM compound DMSO solution was added to Labcyte LDV plate and the compound concentration of source plate was 10 mM. The 1 st compound concentration of Inter plate (Labcyte 384 well PP plate) was 4.938×10^−1 mM which was prepared by transferring 1.5 μL of 10 mM compound from source plate to 28.9 μL DMSO. The 2nd compound concentration of Inter plate was 1.829×10^−2 mM which was prepared by transferring 60 nL of 10 mM compound from source plate to 32.7 μL DMSO. The 3rd compound concentration of Inter plate was 6.774×10^−4 mM which was prepared by transferring 2.5 nL of 10 mM compound from source plate to 36.9 μL DMSO. 100 nL of reference compound was dispensed in column 1 for low control wells and 100 nL of DMSO in column 24 for high control wells. Compounds were dispensed to column 2 to 23 of assay plate and backfilled with DMSO to a total volume of 100 nL.
A 2×LRRK2 enzyme solution (final concentration 3 nM) was prepared in assay buffer (Tris-HCl pH8.0: 50 mM, MgCl2: 5 mM, EDTA: 1 mM, Brij-35: 0.01%, 2 mM DTT). A 2× substrate solution was prepared: LRRK2 tide substrate (final concentration 400 nM) and ATP (final concentration 25 μM) in assay buffer. 5 μL 2×LRRK2 enzyme solution was dispensed to each well in assay plate by Multidrop. Assay plate was spun at 1,000 rpm for 1 min and incubated for 15 min at 23° C. 5 μL 2×ATP/LRRKtide solution was dispensed to each well in assay plate by Multidrop. Assay plate was spun at 1,000 rpm for 1 min and incubated for 120 min at 23° C.
A 2× detection solution was prepared: Tb-pERM (pLRRKtide) antibody (final concentration 0.25 nM) and EDTA (final concentration 10 mM) in TR-FRET dilution buffer. 10 μL 2× detection solution was dispensed to each well in assay plate to stop kinase reaction by Multidrop. Assay plate was spun at 1,000 rpm for 1 min and incubate for 30 min at 23° C. Assay plate was then read on Envision configured for LanthaScreen® TR-FRET.

[1] = biological target: T1, phosphorylation at Ser935 on wild type LRRK2 overexpressed in recombinant HEK-293T cells (Homo sapiens, UniProt Q5S007); assay: pS935 LRRK2 Cell Assay (HTRF); assay type: cell-based; conditions: LRRK2 inhibition; pS935 LRRK2 in transfected HEK293T cells, 2 hours compound incubation
T1 construct: host or cells: HEK293T, transient transfection
Excerpt: The following protocol describes an in-vitro method for measuring phosphorylation at Ser935 on wild type LRRK2 overexpressed in recombinant HEK-293T cells. The method is based on HTRF technology, which combines Fluorescence Resonance Energy Transfer (FRET) with Time-Resolved measurement (TR). Phospho-LRRK2 (Ser935) is detected in a sandwich assay format using two different specific antibodies, one labelled with Eu^3+-Cryptate (donor) and the second with d2 (acceptor). When the fluorophores are in close proximity, excitation of the donor with a light source (flash lamp) stimulates FRET to the acceptor, which in turn fluoresces at a specific wavelength (665 nm). The fluorescence emission at 615 nm from the donor is also measured to allow ratiometric reduction of data. The specific signal is proportional to phospho-LRRK2 (Ser935).
Plasmid transient transfection: DMEM medium, FBS, DPBS, Trans-IT, OPTI-MEM reagents were allowed to warm to room temperature. HEK293T cells were cultured in DMEM+10% FBS complete medium in T150 flasks till around 80% confluency before transfection. Then cells were washed with 10 mL PBS and detached with 3 mL 0.25% typinsin. 30×10E6 HEK293T cells were seeded in DMEM+10% FBS complete medium to a 15 cm dish.
DNA, TransIT-LT1, OPTI-MEM complex were prepared: […] OPTI-MEM was added to a 15 mL cone tube, then […] plasmid was added to OPTI-MEM and mixed, followed by addition of 60 L TransIT-LT1 to the plasmid OPTI-MEM mixture and mixing. The resulting mixture was incubated for 15 minutes.
The above plasmid, DNA and OPTI-MEM mixture was added dropwise to the 15 cm dish, ensuring the drops were evenly distributed. The culture dish was gently rocked back and forth and from left to right to evenly distribute the complex. The transfected dish was incubated for 24 hours at 37° C., and 5% CO2.
Transfected HEK293T was collected in the 15 cm dish. Media was aspirated from tissue culture dish, and washed by dispensing 10 mL 1×DPBS into 15 cm dish. 1×DPBS was aspirated and 3 mL trypsin was dispensed to 15 cm dish. The dish was incubated with trypsin at room temperature for 3 min until the cells were detached. 10 mL of DMEM+10% FBS medium were added to 15 cm dish and triturated to ensure homogenous cell suspensions.
Homogenous cell suspensions were transferred to a 50 mL tube, and centrifuged for 5 minutes at 1,000 rmp/min. The supernatant was aspirated and resuspended with 20 mL complete medium. 1 mL of cell suspension was transferred for cell counting. The cell suspension was diluted to 2×10E5 cells/ml. 50 L cell suspensions were added to a 384-well plate. The plate was quick spun at 800 rpm for 1 minute, then incubate overnight at 37° C., 5% CO2.
Compound dispensing: compound was diluted (10 mM DMSO stock solution) and added to assay plate (top concentration: 10 μM, 3 fold serial dilution, 9 doses) with duplicates by Tecan liquid handler. The DMSO concentration of each well was normalized to 0.2%. Plates were quick spun at 1,000 rpm for 1 minute. Plates were incubated at 37° C., 5% CO2 for 2 hours.
1× lysis buffer solution supplemented with blocking reagent was prepared (e.g. 1 mL lysis buffer 4×+3 mL water+40 L stock blocking reagent 100×). Antibodies working solution was prepared by diluting 40-fold d2 and Cryptate antibodies with detection buffer (e.g. 1520 L detection buffer+40 L d2-antibody stock solution+[…] Cryptate-antibody stock solution).
After 2 hours incubation, cell plates were taken out from the incubator. Medium was removed by plate washer, then 16 µL of supplemented lysis buffer was added 1× to each well and incubated for 30 minutes at room temperature under shaking (800 rpm/min). 4 µL of antibodies working solution was added to each well, covered with a top seal and incubated overnight in 23° C. incubator.
HTRF signal was read (665 nm and 615 nm) on Wallac 2104 EnVision® multilabel reader. Data were analyzed by XL fit software.

T1 sequence (Q5S007 whole entry): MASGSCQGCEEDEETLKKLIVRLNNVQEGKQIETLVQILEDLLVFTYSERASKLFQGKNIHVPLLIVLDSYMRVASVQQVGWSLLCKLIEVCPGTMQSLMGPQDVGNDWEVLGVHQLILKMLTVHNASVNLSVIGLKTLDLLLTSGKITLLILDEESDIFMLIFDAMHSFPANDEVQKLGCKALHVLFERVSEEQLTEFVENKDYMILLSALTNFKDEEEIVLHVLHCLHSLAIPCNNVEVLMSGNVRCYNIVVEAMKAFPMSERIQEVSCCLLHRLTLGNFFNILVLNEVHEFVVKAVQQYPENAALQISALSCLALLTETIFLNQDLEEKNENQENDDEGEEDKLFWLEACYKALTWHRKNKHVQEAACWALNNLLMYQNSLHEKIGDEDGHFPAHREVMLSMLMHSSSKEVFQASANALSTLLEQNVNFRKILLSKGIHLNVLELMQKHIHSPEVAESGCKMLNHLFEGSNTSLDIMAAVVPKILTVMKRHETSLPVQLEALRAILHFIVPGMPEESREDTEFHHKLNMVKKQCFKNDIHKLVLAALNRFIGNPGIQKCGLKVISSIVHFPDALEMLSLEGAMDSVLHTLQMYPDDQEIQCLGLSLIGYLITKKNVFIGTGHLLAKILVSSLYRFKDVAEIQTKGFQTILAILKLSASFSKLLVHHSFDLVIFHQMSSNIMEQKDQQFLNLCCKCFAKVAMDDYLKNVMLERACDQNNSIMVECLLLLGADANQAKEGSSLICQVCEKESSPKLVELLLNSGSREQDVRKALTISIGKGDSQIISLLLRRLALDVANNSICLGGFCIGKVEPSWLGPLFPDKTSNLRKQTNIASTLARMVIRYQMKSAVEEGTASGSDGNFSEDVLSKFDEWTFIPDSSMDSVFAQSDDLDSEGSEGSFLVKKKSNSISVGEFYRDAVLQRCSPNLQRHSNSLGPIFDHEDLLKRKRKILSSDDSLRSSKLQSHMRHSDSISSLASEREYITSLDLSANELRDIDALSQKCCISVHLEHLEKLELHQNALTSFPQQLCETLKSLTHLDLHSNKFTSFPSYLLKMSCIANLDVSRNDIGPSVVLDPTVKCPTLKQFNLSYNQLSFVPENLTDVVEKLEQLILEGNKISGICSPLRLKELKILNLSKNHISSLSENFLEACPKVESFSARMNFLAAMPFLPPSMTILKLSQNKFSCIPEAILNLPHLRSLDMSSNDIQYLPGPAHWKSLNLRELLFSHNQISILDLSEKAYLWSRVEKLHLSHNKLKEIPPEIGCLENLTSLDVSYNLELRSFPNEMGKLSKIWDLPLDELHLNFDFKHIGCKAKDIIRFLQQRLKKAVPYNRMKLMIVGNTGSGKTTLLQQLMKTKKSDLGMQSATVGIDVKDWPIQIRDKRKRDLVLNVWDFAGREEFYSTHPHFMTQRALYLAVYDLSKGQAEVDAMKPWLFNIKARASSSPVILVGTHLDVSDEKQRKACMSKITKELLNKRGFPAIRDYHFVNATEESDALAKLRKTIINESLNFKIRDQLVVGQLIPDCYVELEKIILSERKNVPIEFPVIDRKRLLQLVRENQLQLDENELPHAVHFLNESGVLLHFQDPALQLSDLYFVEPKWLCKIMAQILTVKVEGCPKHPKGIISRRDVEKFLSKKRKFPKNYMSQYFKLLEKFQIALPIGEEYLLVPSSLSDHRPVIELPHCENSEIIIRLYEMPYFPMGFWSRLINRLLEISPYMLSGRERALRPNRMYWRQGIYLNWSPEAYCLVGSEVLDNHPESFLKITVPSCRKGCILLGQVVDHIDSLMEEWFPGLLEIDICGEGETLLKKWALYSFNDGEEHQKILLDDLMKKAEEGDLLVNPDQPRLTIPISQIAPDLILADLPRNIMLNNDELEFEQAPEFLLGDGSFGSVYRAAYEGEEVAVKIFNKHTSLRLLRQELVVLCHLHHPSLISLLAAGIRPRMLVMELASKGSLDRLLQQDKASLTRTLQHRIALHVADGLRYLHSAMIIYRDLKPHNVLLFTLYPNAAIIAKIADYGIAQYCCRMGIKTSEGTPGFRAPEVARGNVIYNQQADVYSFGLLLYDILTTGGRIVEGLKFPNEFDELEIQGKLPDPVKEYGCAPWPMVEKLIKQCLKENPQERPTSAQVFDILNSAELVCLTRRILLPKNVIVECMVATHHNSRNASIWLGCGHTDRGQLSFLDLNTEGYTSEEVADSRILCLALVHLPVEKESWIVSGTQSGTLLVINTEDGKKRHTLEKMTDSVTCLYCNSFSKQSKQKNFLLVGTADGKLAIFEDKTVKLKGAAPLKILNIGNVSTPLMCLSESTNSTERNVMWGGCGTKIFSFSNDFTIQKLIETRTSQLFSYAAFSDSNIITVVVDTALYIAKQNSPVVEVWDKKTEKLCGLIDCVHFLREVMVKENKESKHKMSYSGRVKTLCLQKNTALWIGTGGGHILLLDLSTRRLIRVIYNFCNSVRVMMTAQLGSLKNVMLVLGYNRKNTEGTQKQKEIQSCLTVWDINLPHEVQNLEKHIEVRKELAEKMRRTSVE
Chain of LRRK2 wild type enzyme (Q5S007 whole entry): as above

Row | SMILES | IC50 (LRRK2 wild type enzyme) | IC50 [1]
1 | C[C@@H]1C[C@H](n2c(Cc3noc(N4CCC(O)C4)n3)nc3cnc4ccc(C#N)cc4c32)CCO1 (mixture of isomers) [Compound 12, 2-({5-[(3RS)-3-hydroxypyrrolidin-1-yl]-1,2,4-oxadiazol-3-yl}methyl)-1-[(2R,4R)-2-methyloxan-4-yl]-1H-imidazo[4,5-c]quinoline-8-carbonitrile] | 1.36 nM | 811 nM
2 | C[C@@H]1CC(n2c(Cn3nccc3NS(C)(=O)=O)nc3cnc4ccc(C#N)cc4c32)CCO1 (stereo in doubt) [Compound 16, N-(1-{[8-cyano-1-(2-methyloxan-4-yl)-1H-imidazo[4,5-c]quinolin-2-yl]methyl}-1H-pyrazol-5-yl)methanesulfonamide] | 671 nM | 
3 | C[C@@H]1C[C@H](n2c(Cc3noc(N4CC(O)C4)n3)nc3cnc4ccc(C#N)cc4c32)CCO1 [Compound 1, 2-{[5-(3-hydroxyazetidin-1-yl)-1,2,4-oxadiazol-3-yl]methyl}-1-[(2R,4R)-2-methyloxan-4-yl]-1H-imidazo[4,5-c]quinoline-8-carbonitrile] | 0.976 nM | 664 nM
4 | C[C@@H]1C[C@H](n2c(Cn3cccc(C(=O)O)c3=O)nc3cnc4ccc(C#N)cc4c32)CCO1 [Compound 2, 1-({8-cyano-1-[(2R,4R)-2-methyloxan-4-yl]-1H-imidazo[4,5-c]quinolin-2-yl}methyl)-2-oxo-1,2-dihydropyridine-3-carboxylic acid] | 106 nM | 
5 | C[C@@H]1C[C@H](n2c(Cc3noc(N4CC(O)C4)n3)nc3cnc4ccc(Cl)cc4c32)CCO1 [Compound 3, 1-[3-({8-chloro-1-[(2R,4R)-2-methyloxan-4-yl]-1H-imidazo[4,5-c]quinolin-2-yl}methyl)-1,2,4-oxadiazol-5-yl]azetidin-3-ol] | 0.798 nM | 61.5 nM
6 | C[C@@H]1C[C@H](n2c(Cn3ccc(NS(C)(=O)=O)n3)nc3cnc4ccc(C#N)cc4c32)CCO1 [Compound 4, N-(1-{[8-cyano-1-(2-methyloxan-4-yl)-1H-imidazo[4,5-c]quinolin-2-yl]methyl}-1H-pyrazol-3-yl)methanesulfonamide] | 0.888 nM | 458 nM
7 | C[C@@H]1C[C@H](n2c(Cc3cn(C4CN(S(C)(=O)=O)C4)nn3)nc3cnc4ccc(C#N)cc4c32)CCO1 [Compound 5, 2-{[1-(1-methanesulfonylazetidin-3-yl)-1H-1,2,3-triazol-4-yl]methyl}-1-[(2R,4R)-2-methyloxan-4-yl]-1H-imidazo[4,5-c]quinoline-8-carbonitrile] | 0.635 nM | 324 nM
8 | C[C@@H]1C[C@H](n2c(Cc3ccc(NS(C)(=O)=O)nc3)nc3cnc4ccc(C#N)cc4c32)CCO1 [Compound 6, N-(5-{[8-cyano-1-(2-methyloxan-4-yl)-1H-imidazo[4,5-c]quinolin-2-yl]methyl}pyridin-2-yl)methanesulfonamide] | 3.94 nM | 4380 nM
9 | C[C@@H]1C[C@H](n2c(Cc3n[nH]c(=O)o3)nc3cnc4ccc(C#N)cc4c32)CCO1 [Compound 7, 1-[(2R,4R)-2-methyloxan-4-yl]-2-[(5-oxo-4,5-dihydro-1,3,4-oxadiazol-2-yl)methyl]-1H-imidazo[4,5-c]quinoline-8-carbonitrile] | 1.49 nM | 466 nM
10 | C[C@@H]1C[C@H](n2c(Cc3cnn(C4COC4)c3)nc3cnc4ccc(C#N)cc4c32)CCO1 [Compound 8, 1-[(2R,4R)-2-methyloxan-4-yl]-2-{[1-(oxetan-3-yl)-1H-pyrazol-4-yl]methyl}-1H-imidazo[4,5-c]quinoline-8-carbonitrile] | 6.47 nM | 618 nM
11 | C[C@@H]1C[C@H](n2c(Cc3noc(N4CCN(C)C(=O)C4)n3)nc3cnc4ccc(C#N)cc4c32)CCO1 [Compound 9, 2-{[5-(4-methyl-3-oxopiperazin-1-yl)-1,2,4-oxadiazol-3-yl]methyl}-1-[(2R,4R)-2-methyloxan-4-yl]-1H-imidazo[4,5-c]quinoline-8-carbonitrile] | 1.69 nM | 616 nM
12 | C[C@@H]1C[C@H](n2c(Cc3noc(C4(S(C)(=O)=O)CC4)n3)nc3cnc4ccc(Cl)cc4c32)CCO1 [Compound 10, 3-({8-chloro-1-[(2R,4R)-2-methyloxan-4-yl]-1H-imidazo[4,5-c]quinolin-2-yl}methyl)-5-(1-methanesulfonylcyclopropyl)-1,2,4-oxadiazole] | 0.299 nM | 10.3 nM
13 | C[C@@H]1C[C@H](n2c(Cc3noc(N4CCC(O)CC4)n3)nc3cnc4ccc(C#N)cc4c32)CCO1 [Compound 11, 2-{[5-(4-hydroxypiperidin-1-yl)-1,2,4-oxadiazol-3-yl]methyl}-1-[(2R,4R)-2-methyloxan-4-yl]-1H-imidazo[4,5-c]quinoline-8-carbonitrile] | 2.26 nM | 270 nM
14 | C[C@@H]1C[C@H](n2c(Cc3noc(C4(S(C)(=O)=O)CC4)n3)nc3cnc4ccc(C#N)cc4c32)CCO1 [Compound 13, 2-{[5-(1-methanesulfonylcyclopropyl)-1,2,4-oxadiazol-3-yl]methyl}-1-[(2R,4R)-2-methyloxan-4-yl]-1H-imidazo[4,5-c]quioline-8-carbonitrile] | 0.449 nM | 23.7 nM
15 | C[C@@H]1C[C@H](n2c(Cc3cc(CCS(C)(=O)=O)on3)nc3cnc4ccc(C#N)cc4c32)CCO1 [Compound 20, 2-{[5-(2-methanesulfonylethyl)-1,2-oxazol-3-yl]methyl}-1-[(2R,4R)-2-methyloxan-4-yl]-1H-imidazo[4,5-c]quinoline-8-carbonitrile] | 0.596 nM | 
16 | C[C@@H]1C[C@H](n2c(Cc3ccc(S(C)(=O)=O)cn3)nc3cnc4ccc(C#N)cc4c32)CCO1 [Compound 22, 2-[(5-methanesulfonylpyridin-2-yl)methyl]-1-[(2R,4R)-2-methyloxan-4-yl]-1H-imidazo[4,5-c]quinoline-8-carbonitrile] | 0.579 nM | 
